Laboratory results taken from PubChem BioAssay (NCI).
Values joined by “and” are separate entries in the source; they are usually repeats but may differ in a detail not shown here. Equal entries are not always repeated.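 Interpolation was linear, between the two tested concentrations surrounding the appropriate level; five concentrations were tested over 48 hours in 96-well plates. GI50: concentration for 50% inhibition of growth. TGI is the concentration that stops growth completely.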

Tests used:
Assay in all cases: DTP human tumour cell line panel, 48 h
MDA-MB-231 breast = test system: MDA-MB-231 breast
SW-620 colon = test system: SW-620 colon
HCT-15 colon = test system: HCT-15 colon
NCI-H460 lung = test system: NCI-H460 lung
786-0 renal = test system: 786-0 renal
K-562 leukemia = test system: K-562 leukemia
CAKI-1 renal = test system: CAKI-1 renal
SR leukemia = test system: SR leukemia
HCT-116 colon = test system: HCT-116 colon
SK-MEL-2 melanoma = test system: SK-MEL-2 melanoma

| Structure (SMILES) | GI50 (MDA-MB-231 breast) | TGI (MDA-MB-231 breast) [µM] | GI50 (SW-620 colon) | TGI (SW-620 colon) [µM] | GI50 (HCT-15 colon) | TGI (HCT-15 colon) [µM] | GI50 (NCI-H460 lung) | TGI (NCI-H460 lung) [µM] | GI50 (786-0 renal) | TGI (786-0 renal) [µM] | GI50 (K-562 leukemia) | TGI (K-562 leukemia) [µM] | GI50 (CAKI-1 renal) [µM] | TGI (CAKI-1 renal) [µM] | GI50 (SR leukemia) | TGI (SR leukemia) [µM] | GI50 (HCT-116 colon) | TGI (HCT-116 colon) [µM] | GI50 (SK-MEL-2 melanoma) [µM] | TGI (SK-MEL-2 melanoma) [µM] |
| --- | --- | --- | --- | --- | --- | --- | --- | --- | --- | --- | --- | --- | --- | --- | --- | --- | --- | --- | --- | --- |
| CC1(C)N=C(N)N=C(N)N1c1ccc(CNC(=O)Nc2ccc(S(=O)(=O)F)c(Cl)c2)c(Cl)c1 | 15.6 µM | > 100 | 0.122 µM | > 100 | 4.87 µM | > 100 | 0.0456 µM | > 100 | 0.872 µM | > 100 | 0.257 µM | > 100 | 12.5 | > 100 | 0.167 µM | > 100 | 0.379 µM | > 100 | 12.2 | > 74.9 |
| CC(C)(C)OC(=O)NCC(CNC(=O)OC(C)(C)C)C(N)=O | – | > 100 | – | > 100 | – | > 100 | – | > 100 | – | > 100 | – | > 100 | – | > 100 | – | > 100 | – | > 100 | – | – |
| COC[C@H](NC(=O)c1cnc(C)s1)C(=O)N[C@@H](COC)C(=O)N[C@@H](Cc1ccccc1)C(=O)[C@@]1(C)CO1 | 16.2 µM | 39 | 21.2 µM | > 100 | 31.2 µM | > 100 | 37.1 µM | > 100 | 50.1 µM | > 100 | 37.8 µM | > 100 | 38.5 | > 100 | > 61.4 µM | > 100 | 9.27 µM | 32.6 | 28.7 | > 91.6 |
| OC1CC2CCC(C1)N2CCCN1c2ccccc2Sc2ccc(Cl)cc21 (stereo not drawn) | – | 3.66 | – | 5.77 | – | 6.65 | – | 3.25 | – | 3.54 | – | 4.61 | – | 9.47 | – | 5.34 | – | 3.64 | – | 3.29 |
| NC(=O)c1cc(N2CC2)c([N+](=O)[O-])cc1[N+](=O)[O-] | – | > 200 | > 200 µM | > 200 | – | > 200 | – | > 77 | > 200 µM | > 200 | > 200 µM | > 200 | > 200 | > 200 | – | > 200 | > 200 µM | > 200 | – | > 20 |
| Cc1ccc(S(=O)(=O)ON2C(=O)c3cccc4cc([N+](=O)[O-])cc(c34)C2=O)cc1 | – | > 100 | – | > 100 | – | > 100 | – | > 100 | – | > 100 | – | – | – | > 100 | – | > 100 | – | > 100 | – | > 100 |
| Cc1ccc(CNc2ccc3nc(CCC4CCCCC4)[nH]c3c2)cc1 | 1.68 µM | 3.33 | 1.99 µM | 4.64 | 1.94 µM | 6.82 | 2.99 µM | 8.6 | 2.12 µM | 4.93 | 2.1 µM | 5.47 | 2.67 | 7.03 | 2.91 µM | 8.74 | 1.95 µM | 5.05 | 2.31 | 5.5 |
| CC1=CCC2CC1C(C(=O)c1c[nH]c3ccccc13)=NC2(C)C (stereo not drawn) | – | > 100 | – | > 100 | – | > 100 | – | > 100 | – | > 100 | – | > 100 | – | > 100 | – | > 100 | – | > 100 | – | – |
| O=S(=O)(N=C1C(Cl)=C(Cl)C(=NS(=O)(=O)c2ccccc2)C(Cl)=C1Cl)c1ccccc1 | 21.9 µM | > 100 | 13.4 µM | 28 | 24.5 µM | > 100 | 17.4 µM | 36.7 | 22.7 µM | 44.1 | 21.4 µM | > 100 | – | – | 12.7 µM | > 100 | 13.6 µM | 29.1 | 27.5 | > 100 |
| CC(C)(C)OC(=O)C1C(=O)NC(=O)CC1CC(OCc1ccccc1)C(OCc1ccccc1)C(COCc1ccccc1)OCc1ccccc1 (stereo not drawn) | 42.8 µM and 6.81 µM | > 100 | 74.5 µM and 23.4 µM | > 100 | 60.5 µM and 21.4 µM | > 100 | 32.7 µM and 12.1 µM | > 100 | 47.6 µM and 12.3 µM | > 100 | 41.5 µM and 11 µM | > 100 | – | – | 30.1 µM and 6.47 µM | > 100 | 48.5 µM and 17 µM | > 100 | – | – |
| C=CCC1(C(=O)OC)CCC/C(=N\O)C1 (stereo not drawn) | – | > 10 | – | > 10 | – | > 10 | – | – | – | > 10 | – | > 10 | – | > 10 | – | > 10 | – | > 10 | – | – |
| COC(=O)/C=C1/SC(=Nc2cccc(Cl)c2)N(CCc2c[nH]c3ccc(O)cc23)C1=O | 1.74 µM | 3.59 | – | – | 1.5 µM | 3.32 | 2.04 µM | 4.1 | 1.67 µM | 3.4 | – | – | 1.83 | 3.67 | 0.522 µM | 7.13 | 1.18 µM | 2.71 | 1.53 | 3.08 |
| Nc1ncc(-c2ccc3ncnc(Nc4cccc(Cl)c4)c3c2)cn1 | 2.22 µM | > 100 | – | – | 0.217 µM and 1.57 µM | > 100 | – | – | 0.339 µM and 1.78 µM | > 100 | – | – | 0.0346 | – | 0.268 µM | – | – | – | – | – |
